Columns and labels:
[1] = test system: indomethacin-induced gastric irritation; test: Rat model of indomethacin-induced gastric irritation; format: in vivo, Sprague-Dawley rats
Experimental: Forty-five Sprague-Dawley rats (8-9 weeks-old, 227.6±6.30 g) were divided in three groups (P1, P2 and P3; n=9 each) to receive orally 0.5 mL/rat of the test treatments. Two control groups were studied as well. […] 15 minutes after the administration of the treatment, all animals were challenged with an oral administration of indomethacin (12.5 mg/kg) and sacrificed 4 hours later. Gastric mucosal injury was examined at a macroscopical and microscopical level. Macroscopic lesions were evaluated with Image J software. Microscopically, submucosal edema and microvascular injury were scored in H&E-stained preparations (Hematoxylin&Eosin-stained preparations). Measurements were blinded and performed by two independent observers and an inter-observer mean was calculated.

human patients = details: humans; cited from earlier work

With “Sucrose octasulfate-aluminum complex [sucralfate]” the “microvascular injury evaluation (score, mean±SEM)” value ([1]; H&E-stained fundic sections, Placebo 1.53±0.077, significant vs Placebo) was 0.94±0.123, the “histological sections of the fundic stomach (findings)” value ([1]; microscopic evaluation, H&E-stained fundic sections) was “less severe lesions” and the “percentage of hemorrhagic area related to the total gastric area (mean±SEM)” value ([1]; oral 0.5 mL/rat 15 min before oral indomethacin 12.5 mg/kg, sacrificed 4 hours later, Placebo 1.37±0.260%, p<0.05 vs Placebo) was 0.41±0.154%. The “hemorrhagic area (mean±SEM)” value ([1]; oral 0.5 mL/rat 15 min before oral indomethacin 12.5 mg/kg, sacrificed 4 hours later, Placebo 13.05±2.700, p<0.05 vs Placebo) was 4.28±1.495 mm^2 and the “other adverse effects (xerostomia, nausea, vomiting, headache, urticaria, rashes), incidence in patients” value (human patients) was 0-5%.

From patent publication US20260041707A1, “GASTROINTESTINAL PROTECTANT COMPOSITION” (BIOIBERICA, S.A.U., priority 2022, published 2026)
